Columns and labels:
Type in all cases: biochemical
[1] = biological target: T1, cathepsin B (Homo sapiens, UniProt P07858); experiment: Cathepsin B enzyme inhibition in vitro (kinetic fluorescence assay); conditions: cathepsin B isolated from human liver vs calpain I
T1 construct: cathepsin B—isolated from human liver (Calbiochem #219362); purchased Calbiochem 219362; host or cells: human liver (tissue-derived)
Procedure, shortened: (§1)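 Cathepsin B (0.25 nM, human liver) with 100 μM Z-Phe-Arg-AMC; L (1 nM, human liver) with 2 μM Z-Phe-Arg-AMC; S (0.5 nM, recombinant) with 20 μM Z-Val-Val-Arg-AMC. pH 6.0 MES buffer, 2.5 mM L-cysteine, room temperature. Kinetic fluorescence (ex 390/em 460 nm); apparent Ki from IC50 by Cheng-Prusoff.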

[2] = biological target: T2, cathepsin K (Homo sapiens, UniProt P43235); experiment: Cathepsin K enzyme inhibition in vitro (kinetic fluorescence assay); conditions: cathepsin K activated from recombinant human procathepsin K vs calpain I
T2 construct: purchased Calbiochem 342001; host or cells: E. coli
T2 sequence (P43235 115-329): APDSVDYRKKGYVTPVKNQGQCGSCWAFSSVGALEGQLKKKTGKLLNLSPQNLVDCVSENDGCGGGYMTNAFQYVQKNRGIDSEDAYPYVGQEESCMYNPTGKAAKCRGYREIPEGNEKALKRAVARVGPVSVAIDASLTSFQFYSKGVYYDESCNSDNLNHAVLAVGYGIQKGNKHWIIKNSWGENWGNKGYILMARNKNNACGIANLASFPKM
Protocol: The following solutions and buffers were employed: • HBS (for 40 ml): 800 μl M HEPES; 2.16 ml 100 mM KCl; 4.8 ml 1M NaCl; 3.59 ml 5% glucose; 60 μl μM MgSO4; 400 μl 100 mM Na pyruvate, 28.19 ml water; pH 7.2-7.5. • lysis buffer (for 20 ml): 400 μl M Tris pH 8.2; 2.74 ml 1M NaCl; 520 μl 0.5M EDTA; 2 ml 10% triton X-100; 0.8 ml (=1:25) CompletePlus (1 tablet/2 ml H2O); 200 μl 100 mM Pefabloc; 13.34 ml water, pH 8.2. • TBST (10×) (for 1 l): 100 mM Tris (12.1 g); 1.5M NaCl (87 g); 1% Tween 20 (10 g), adjusted to pH 8. I Enzyme Inhibition In Vitro: • Testing for blockade of the corresponding enzymic activities was carried out by means of kinetic fluorescence assays (excitation 390 nm, emission 460 nm). • Apparent Ki values were calculated from the experimentally determined IC50 values by the Cheng-Prussoff relation assuming a reversible competitive enzyme inhibition. The Km values of the substrates used under the assay conditions indicated above were: 90 μM (Z-Phe-Arg-AMC, cathepsin B), 10 μM (Z-Gly-Pro-Arg-AMC, cathepsin K), 2 μM (Z-Phe-Arg-AMC, cathepsin L), and 30 μM (Z-Val-Val-Arg-AMC, cathepsin S). • The indicated Ki values are averages of the inhibition constants calculated on the basis of 2 to 4 independent dose-effect plots.
The following assays were used: • 1. Calpain I: • 20 nM calpain-I—isolated from human erythrocytes (Calbiochem #208713), 100 μM Suc-Leu-Tyr-AMC (Bachem #1-1355) as substrate in buffer with 62 mM imidazole, 0.3 mM CaCl2, 0.10% CHAPS, 0.05% BSA, 1 mM DTT at pH 7.3 and room temperature. • 2. Cathepsin B: • 0.25 nM cathepsin B—isolated from human liver (Calbiochem #219362), 100 μM Z-Phe-Arg-AMC (Bachem #I-1160) as substrate 50 mM MES, 2 mM EDTA, 0.05% Brij 35, 2.5 mM L-cysteine, pH 6.0, room temperature. • 3. Cathepsin K: • 3 nM cathepsin K—activated from recombinant human procathepsin K from E. coli (Calbiochem #342001), 10 μM Z-Gly-Pro-Arg-AMC (Biomol #P-142) as substrate in 50 mM MES, 2 mM EDTA, 0.05% Brij 35, 2.5 mM L-cysteine, pH 6.0, room temperature. • 4. Cathepsin L: • 1 nM cathepsin L—isolated from human liver (Calbiochem #219402), 2 μM Z-Phe-Arg-AMC (Bachem #1-1160) as substrate in 50 mM MES, 2 mM EDTA, 0.05% Brij 35, 2.5 mM L-cysteine, pH 6.0, room temperature. • 5. Cathepsin S: • 0.5 nM recombinant human cathepsin S from E. coli (Calbiochem #219343), 20 μM Z-Val-Val-Arg-AMC (Bachem #1-1540) as substrate in 50 mM MES, 2 mM EDTA, 0.05% Brij 35, 2.5 mM L-cysteine, pH 6.0, room temperature. • The results of the in vitro determination are indicated in Table 1. The following abbreviations are used in Table 1: • The “Calpain activity” column, ++ stands for a calpain Ki (Ki(calpain)) of ≦40 nM and + means: 40 nM<Ki(Calpain)≦100 nM. • The “Sel. cat. B” column indicates the Ki(cathepsin B)/Ki(calpain) ratio. In this connection, ++ means a Ki(cathepsin B)/Ki(calpain) ratio of ≧30 and + means 10≦Ki(cathepsin B)/Ki(calpain)<30. • The “Sel. cat. K” column indicates the Ki(cathepsin K)/Ki(calpain) ratio. In this connection, ++ means a Ki(cathepsin K)/Ki(calpain) ratio of ≧30 and + means 10≦Ki(cathepsin K)/Ki(calpain)<30. • The “Sel. cat. L” column indicates the Ki(cathepsin L)/Ki(calpain) ratio. In this connection, ++ means a Ki(cathepsin L)/Ki(calpain) ratio of ≧50 and + means 30≦Ki(cathepsin L)/Ki(calpain)<50. • The “Sel. cat. S” column indicates the Ki(cathepsin S)/Ki(calpain) ratio. In this connection, ++ means a Ki(cathepsin S)/Ki(calpain) ratio of ≧100 and + means 50≦Ki(cathepsin S)/Ki(calpain)<100.

[3] = biological target: T3, cathepsin L (Homo sapiens, UniProt P07711); experiment: Cathepsin L enzyme inhibition in vitro (kinetic fluorescence assay); conditions: cathepsin L isolated from human liver vs calpain I
T3 construct: cathepsin L—isolated from human liver (Calbiochem #219402); purchased Calbiochem 219402; host or cells: human liver (tissue-derived)
T3 sequence (P07711 114-333): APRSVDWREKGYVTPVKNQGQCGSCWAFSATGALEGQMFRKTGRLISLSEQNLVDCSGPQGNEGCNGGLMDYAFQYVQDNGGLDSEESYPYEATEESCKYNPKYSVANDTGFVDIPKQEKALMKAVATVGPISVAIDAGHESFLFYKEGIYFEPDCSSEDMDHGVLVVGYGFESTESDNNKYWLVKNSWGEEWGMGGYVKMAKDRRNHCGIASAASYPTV
Procedure, shortened: as §1

[4] = biological target: T4, cathepsin S (Homo sapiens, UniProt P25774); experiment: Cathepsin S enzyme inhibition in vitro (kinetic fluorescence assay); conditions: recombinant human cathepsin S vs calpain I
T4 construct: purchased Calbiochem 219343; host or cells: E. coli
T4 sequence (P25774 115-331): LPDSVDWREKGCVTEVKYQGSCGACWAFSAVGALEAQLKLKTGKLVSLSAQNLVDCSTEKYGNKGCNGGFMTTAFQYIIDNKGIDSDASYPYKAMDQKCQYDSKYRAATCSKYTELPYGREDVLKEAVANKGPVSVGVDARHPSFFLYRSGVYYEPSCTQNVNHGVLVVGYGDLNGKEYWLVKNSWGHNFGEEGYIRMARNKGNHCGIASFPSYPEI
Procedure, shortened: as §1

SMILES | Sel cat. B: Ki(cathepsin B)/Ki(calpain) ratio [1] | Sel cat. K: Ki(cathepsin K)/Ki(calpain) ratio [2] | Sel cat. L: Ki(cathepsin L)/Ki(calpain) ratio [3] | Sel cat. S: Ki(cathepsin S)/Ki(calpain) ratio [4]
COc1ccc(CC(NC(=O)c2cccnc2-n2ccc(-c3cccc4ccccc34)n2)C(=O)C(N)=O)cc1 (stereo not drawn) [Example 135, N-(3-Amino-1-{[4-(methyloxy)phenyl]methyl}-2,3-dioxopropyl)-2-(3-naphthalen-1-yl-1H-pyrazol-1-yl)pyridine-3-carboxamide] | ++ (++ means a Ki(cathepsin B)/Ki(calpain) ratio of ≧30) | ++ (++ means a Ki(cathepsin K)/Ki(calpain) ratio of ≧30) | ++ (++ means a Ki(cathepsin L)/Ki(calpain) ratio of ≧50) | ++ (++ means a Ki(cathepsin S)/Ki(calpain) ratio of ≧100)
NC(=O)C(=O)C(Cc1ccccc1)NC(=O)c1cccnc1-n1ccc(-c2cccc3c2OCC3)n1 (stereo not drawn) [Example 164, N-[3-Amino-2,3-dioxo-1-(phenylmethyl)propyl]-2-[3-(2,3-dihydro-1-benzofuran-7-yl)-1H-pyrazol-1-yl]pyridine-3-carboxamide] | + (+ means 10≦Ki(cathepsin B)/Ki(calpain)<30) | ++ (++ means a Ki(cathepsin K)/Ki(calpain) ratio of ≧30) | ++ (++ means a Ki(cathepsin L)/Ki(calpain) ratio of ≧50) | ++ (++ means a Ki(cathepsin S)/Ki(calpain) ratio of ≧100)
NC(=O)C(=O)C(Cc1ccccc1)NC(=O)c1cccnc1-n1cc2c(n1)-c1cc(Cl)ccc1OC2 (stereo not drawn) [Example 140, N-[3-Amino-2,3-dioxo-1-(phenylmethyl)propyl]-2-(8-chlorochromeno[4,3-c]pyrazol-2(4H)-yl)pyridine-3-carboxamide] | + (+ means 10≦Ki(cathepsin B)/Ki(calpain)<30) | ++ (++ means a Ki(cathepsin K)/Ki(calpain) ratio of ≧30) | ++ (++ means a Ki(cathepsin L)/Ki(calpain) ratio of ≧50) | ++ (++ means a Ki(cathepsin S)/Ki(calpain) ratio of ≧100)
COc1ccc(CC(NC(=O)c2cccnc2-n2ccc(-c3ccc(F)cc3Cl)n2)C(=O)C(N)=O)cc1 (stereo not drawn) [Example 111, N-(3-Amino-1-{[4-(methyloxy)phenyl]methyl}-2,3-dioxopropyl)-2-[3-(2-chloro-4-fluorophenyl)-1H-pyrazol-1-yl]pyridine-3-carboxamide] | ++ (++ means a Ki(cathepsin B)/Ki(calpain) ratio of ≧30) | ++ (++ means a Ki(cathepsin K)/Ki(calpain) ratio of ≧30) | ++ (++ means a Ki(cathepsin L)/Ki(calpain) ratio of ≧50) | ++ (++ means a Ki(cathepsin S)/Ki(calpain) ratio of ≧100)
NC(=O)C(=O)[C@H](Cc1ccccc1)NC(=O)c1cccnc1-n1ccc(-c2ccccc2)n1 [Example 107, N-[(1S)-3-Amino-2,3-dioxo-1-(phenylmethyl)propyl]-2-(3-phenyl-1H-pyrazol-1-yl)pyridine-3-carboxamide] | + (+ means 10≦Ki(cathepsin B)/Ki(calpain)<30) | + (+ means 10≦Ki(cathepsin K)/Ki(calpain)<30) | ++ (++ means a Ki(cathepsin L)/Ki(calpain) ratio of ≧50) | ++ (++ means a Ki(cathepsin S)/Ki(calpain) ratio of ≧100)
NC(=O)C(=O)C(Cc1ccc(F)cc1)NC(=O)c1cccnc1-n1ccc(-c2ccccc2)n1 (stereo not drawn) [Example 123, N-{3-Amino-1-[(4-fluorophenyl)methyl]-2,3-dioxopropyl}-2-(3-phenyl-1H-pyrazol-1-yl)pyridine-3-carboxamide] | ++ (++ means a Ki(cathepsin B)/Ki(calpain) ratio of ≧30) | ++ (++ means a Ki(cathepsin K)/Ki(calpain) ratio of ≧30) | ++ (++ means a Ki(cathepsin L)/Ki(calpain) ratio of ≧50) | ++ (++ means a Ki(cathepsin S)/Ki(calpain) ratio of ≧100)
NC(=O)C(=O)C(Cc1ccccc1)NC(=O)c1cccnc1-n1ccc(-c2sccc2Cl)n1 (stereo not drawn) [Example 109, N-[3-Amino-2,3-dioxo-1-(phenylmethyl)propyl]-2-[3-(3-chloro-2-thienyl)-1H-pyrazol-1-yl]pyridine-3-carboxamide] | ++ (++ means a Ki(cathepsin B)/Ki(calpain) ratio of ≧30) | ++ (++ means a Ki(cathepsin K)/Ki(calpain) ratio of ≧30) | ++ (++ means a Ki(cathepsin L)/Ki(calpain) ratio of ≧50) | ++ (++ means a Ki(cathepsin S)/Ki(calpain) ratio of ≧100)
COc1cc(Cl)ccc1-c1ccn(-c2ncccc2C(=O)NC(Cc2ccccc2)C(=O)C(N)=O)n1 (stereo not drawn) [Example 139, N-[3-Amino-2,3-dioxo-1-(phenylmethyl)propyl]-2-{3-[4-chloro-2-(methyloxy)phenyl]-1H-pyrazol-1-yl}pyridine-3-carboxamide] | + (+ means 10≦Ki(cathepsin B)/Ki(calpain)<30) | ++ (++ means a Ki(cathepsin K)/Ki(calpain) ratio of ≧30) | ++ (++ means a Ki(cathepsin L)/Ki(calpain) ratio of ≧50) | ++ (++ means a Ki(cathepsin S)/Ki(calpain) ratio of ≧100)
NC(=O)C(=O)C(Cc1ccccc1)NC(=O)c1cccnc1-n1ccc(-c2c(F)cccc2F)n1 (stereo not drawn) [Example 85, N-[3-Amino-2,3-dioxo-1-(phenylmethyl)propyl]-2-[3-(2,6-difluorophenyl)-1H-pyrazol-1-yl]pyridine-3-carboxamide] | + (+ means 10≦Ki(cathepsin B)/Ki(calpain)<30) | ++ (++ means a Ki(cathepsin K)/Ki(calpain) ratio of ≧30) | ++ (++ means a Ki(cathepsin L)/Ki(calpain) ratio of ≧50) | ++ (++ means a Ki(cathepsin S)/Ki(calpain) ratio of ≧100)

Reference: US7799809B2, “Carboxamide compounds and their use as calpain inhibitors” (Abbott GmbH & Co. KG, priority 2006, dated 2010)
